Measurements as given in US7635706B2, “5HT4-antagonistic 4-(aminomethyl)-piperidine benzamides” (Janssen Pharmaceutica NV, priority 2003, dated 2009).

What follows are compounds tested against T1, h5-HT4b (Homo sapiens, UniProt Q13639) (assay: 5HT4 antagonism: [3H]GR113808 binding to membranes of h5-HT4b-HEK 293 clone 9 cells). Conditions: [3H]GR113808 0.1 nM, h5-HT4b-HEK 293 membranes, 30 min at 25° C.
T1 construct: expressed in transfected cells; host or cells: HEK 293 (clone 9), membrane preparation
T1 sequence (Q13639 whole entry): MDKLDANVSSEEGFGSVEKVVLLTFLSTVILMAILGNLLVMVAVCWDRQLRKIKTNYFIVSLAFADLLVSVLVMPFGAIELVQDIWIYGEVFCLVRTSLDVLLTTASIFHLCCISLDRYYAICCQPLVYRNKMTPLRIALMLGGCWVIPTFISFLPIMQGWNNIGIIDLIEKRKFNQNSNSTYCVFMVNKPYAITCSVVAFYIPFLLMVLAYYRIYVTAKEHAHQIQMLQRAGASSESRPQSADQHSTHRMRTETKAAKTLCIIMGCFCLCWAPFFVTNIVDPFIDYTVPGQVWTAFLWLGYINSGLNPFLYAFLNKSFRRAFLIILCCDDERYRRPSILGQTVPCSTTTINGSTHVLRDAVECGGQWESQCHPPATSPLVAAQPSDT
Description: h5-HT4b-HEK 293 clone 9 cells were cultured in 150 mm Petri dishes and washed twice with cold PBS. The cells were then scraped from the plates and suspended in 50 mM Tris-HCl buffer, pH 7.4 and harvested by centrifugation at 23,500 rpm for 10 minutes. The pellet was resuspended in 5 mM Tris-HCl, pH 7.4 and homogenized with an Ultra Turrax homogenizer. The membranes were collected by centrifugation at 30,000 rpm for 20 min, resuspended in 50 mM Tris-HCl pH 7.4 and stored at −80° C. For the experiment, assay mixtures (0.5 ml) contained 50 μl of the tritiated ligand (5-HT4 antagonist [^3H]GR113808 0.1 nM) and 0.4 ml membrane preparation (15 μg protein/ml). 50 μl of 10% DMSO was added for total binding. 50 μl of 1 μM of (+)-trans-(1-butyl-3-hydroxy4-piperidinyl)methyl 8-amino-7-chloro-2,3-dihydro-1,4-benzodioxin-5-carboxylate (a proprietary 5HT4 agonist of Janssen Pharmaceutica) was added for determination of non-specific binding.
The [^3H]GR113808 assay buffer was 50 mM HEPES-NaOH, pH 7.4. The mixtures were incubated for 30 min at 25° C. The incubation was terminated by filtration over a Unifilter 96 GF/B presoaked in 0.1% polyethylenimine, followed by six washing steps with 50 mM HEPES-NaOH, pH 7.4.

| Compound | IC50 [nM] |
| --- | --- |
| CNCCCCN1CC[C@@H](CNC(=O)c2ccc(C)c3c2OCCCO3)[C@H](O)C1 [compound 4] | 6.92 |
| COCCCN1CC[C@@H](CNC(=O)c2cc(Cl)c(OC)c3c2OCCO3)[C@H](O)C1 [compound 6] | 6.46 |
| COc1c(Cl)cc(C(=O)NC[C@@H]2CCNC[C@H]2O)c2c1OCCO2 [compound 8] | 77.6 |
| COc1c(Cl)cc(C(=O)NC[C@@H]2CCN(CC3OCCO3)C[C@H]2O)c2c1OCCO2 [compound 9] | 7.94 |
| O=C(NC[C@@H]1CCNC[C@H]1O)c1cc(Cl)c(Br)c2c1OCCCO2 [compound 11] | 5.89 |
| COc1c(Cl)cc(C(=O)NC[C@@H]2CCNC[C@H]2O)c2c1OCCCO2 [compound 12] | 43.7 |
| COCCCN1CC[C@@H](CNC(=O)c2cc(Cl)c(OC)c3c2OCCCO3)[C@H](O)C1 [compound 14] | 2.63 |
| COc1c(Cl)cc(C(=O)NC[C@@H]2CCN(CCOCCO)C[C@H]2O)c2c1OCCO2 [compound 15] | 9.55 |
| COc1c(Cl)cc(C(=O)NC[C@@H]2CCN(CC3OCCO3)C[C@H]2O)c2c1OCCCO2 [compound 18] | 24 |
| O=C(NC[C@@H]1CCNC[C@H]1O)c1cc(Cl)c(Cl)c2c1OCCCO2 [compound 20] | 3.63 |
| COc1c(Cl)cc(C(=O)NC[C@@H]2CCN(CCOCCO)C[C@H]2O)c2c1OCCCO2 [compound 23] | 17.4 |
| O=C(NC[C@@H]1CCN(CC2OCCO2)C[C@H]1O)c1cc(Cl)c(Br)c2c1OCCCO2 [compound 26] | 6.31 |
| COc1c(Cl)cc(C(=O)NC[C@@H]2CCN(CCC3OCCO3)C[C@H]2O)c2c1OCCCO2 [compound 29] | 6.46 |
| COc1c(Cl)cc(C(=O)NC[C@@H]2CCN(CCCC#N)C[C@H]2O)c2c1OCCO2 [compound 30] | 12.6 |
| COc1c(Cl)cc(C(=O)NC[C@@H]2CCN(CCC3OCCO3)C[C@H]2O)c2c1OCCO2 [compound 31] | 7.08 |
| COc1c(Cl)cc(C(=O)NC[C@@H]2CCN(CC3CCCO3)C[C@H]2O)c2c1OCCO2 (some centres unmarked) [compound 32] | 8.71 |
| COc1c(Cl)cc(C(=O)NC[C@@H]2CCN(CC3CCCO3)C[C@H]2O)c2c1OCCCO2 (some centres unmarked) [compound 33] | 1.2 |
| COc1c(Cl)cc(C(=O)NC[C@@H]2CCN(CCCC#N)C[C@H]2O)c2c1OCCCO2 [compound 34] | 1 |
| CO[C@@H]1CNCC[C@H]1CNC(=O)c1cc(Cl)c(Br)c2c1OCCCO2 [compound 35] | 23.4 |
| CNCCCN1CC[C@@H](CNC(=O)c2cc(Cl)c(OC)c3c2OCCCO3)[C@H](O)C1 [compound 36] | 38 |

The remaining lines, values ahead:

| IC50 [nM] | Compound |
| --- | --- |
| 1.7 | Cc1ccc(C(=O)NC[C@@H]2CCN(CCCO)C[C@H]2O)c2c1OCCCO2 [compound 3] |
| 5.5 | COc1c(Cl)cc(C(=O)NC[C@@H]2CCN(CCCO)C[C@H]2O)c2c1OCCO2 [compound 5] |
| 3.02 | N#CCCCN1CC[C@@H](CNC(=O)c2cc(Cl)c(Br)c3c2OCCCO3)[C@H](O)C1 [compound 10] |
| 5.37 | COc1c(Cl)cc(C(=O)NC[C@@H]2CCN(CCCO)C[C@H]2O)c2c1OCCCO2 [compound 13] |
| 3.8 | CCCCN1CC[C@@H](CNC(=O)c2cc(Cl)c(OC)c3c2OCCCO3)[C@H](O)C1 [compound 17] |
| 2.69 | O=C(NC[C@@H]1CCN(CCCO)C[C@H]1O)c1cc(Cl)c(Cl)c2c1OCCCO2 [compound 19] |
| 3.89 | O=C(NC[C@@H]1CCN(CCOCCO)C[C@H]1O)c1cc(Cl)c(Cl)c2c1OCCCO2 [compound 21] |
| 1.41 | CCCCN1CC[C@@H](CNC(=O)c2cc(Cl)c(Br)c3c2OCCCO3)[C@H](O)C1 [compound 22] |
| 1.78 | O=C(NC[C@@H]1CCN(CCCO)C[C@H]1O)c1cc(Cl)c(Br)c2c1OCCCO2 [compound 24] |
| 3.09 | O=C(NC[C@@H]1CCN(CCOCCO)C[C@H]1O)c1cc(Cl)c(Br)c2c1OCCCO2 [compound 25] |
| 4.9 | O=C(NC[C@@H]1CCN(CCC2OCCO2)C[C@H]1O)c1cc(Cl)c(Br)c2c1OCCCO2 [compound 27] |
| 6.31 | CO[C@@H]1CN(CCCC#N)CC[C@H]1CNC(=O)c1cc(Cl)c(Br)c2c1OCCCO2 [compound 28] |
